Series [1] has as its system leukocytic infiltration in the aqueous humor. The following applies: in vivo; cited from earlier work.
Series [2] relates to edema of the ear in rats. The experiment in a line: Cutaneous anti-inflammatory activity: inhibition of the edema of the ear in rats following topic administration. The format is in vivo. The following applies: rat ear edema, topical. How it is done:
Cutaneous anti-inflammatory activity determined by the inhibition of the edema of the ear in rats following topic administration. This activity is determined by means of the method according to G. Tonelli and co-workers (Endocrinology, 1965, 77, 625-634). The effect of various concentrations of each compound is determined in at least seven rats. Inflammation is inhibited by a factor of 50% at the following concentrations: […]

Series [3] addresses T1, 12-lipoxygenase (Oryctolagus cuniculus, UniProt G1U492).
T1 construct: metabolism of ^14 C-Arachidonate in the blood platelets of rabbits; endogenous in cells; host or cells: washed rabbit blood platelets (from platelet-rich plasma)
T1 sequence (G1U492 1-663): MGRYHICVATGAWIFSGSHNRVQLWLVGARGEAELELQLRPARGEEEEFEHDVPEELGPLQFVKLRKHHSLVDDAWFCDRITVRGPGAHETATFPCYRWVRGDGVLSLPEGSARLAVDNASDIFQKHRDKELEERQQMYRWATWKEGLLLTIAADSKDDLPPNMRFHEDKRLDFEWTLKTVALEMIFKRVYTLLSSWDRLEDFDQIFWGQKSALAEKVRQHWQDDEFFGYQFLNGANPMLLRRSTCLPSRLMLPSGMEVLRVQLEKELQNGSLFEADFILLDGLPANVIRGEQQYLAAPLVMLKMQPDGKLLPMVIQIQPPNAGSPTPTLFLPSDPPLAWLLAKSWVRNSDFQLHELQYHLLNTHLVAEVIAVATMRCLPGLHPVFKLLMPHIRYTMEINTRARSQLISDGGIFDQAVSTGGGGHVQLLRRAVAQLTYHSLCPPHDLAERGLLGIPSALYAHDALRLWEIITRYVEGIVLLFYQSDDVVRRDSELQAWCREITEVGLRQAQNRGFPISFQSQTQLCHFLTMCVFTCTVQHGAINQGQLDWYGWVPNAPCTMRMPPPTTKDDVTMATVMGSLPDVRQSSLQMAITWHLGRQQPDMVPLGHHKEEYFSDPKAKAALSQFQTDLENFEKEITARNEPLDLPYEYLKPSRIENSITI
The series is described as follows: Inhibition of the metabolism of 14C-arachidonate in the blood platelets of rabbits: 12-lipoxygenase route (12-HETE). The following applies: rabbit blood platelets; 12 HETE; n.i. = no inhibition. The format is cell-based. The method, then:
(§1) 1.2. Inhibition of the metabolism of
(§2) ^14 C-Arachidonate in the blood platelets of rabbits
(§3) Preparation of a platelet-rich plasma (PRP)
(§4) A 12 ml blood sample is taken, by the intracardiac route, on ACD (anticoagulant consisting of an aqueous solution containing 0.27 g citric acid, 0.5 g disodium citrate and 0.02 g glucose per 20 ml water), at a rate of 1 volume ACD per 6 volumes blood. The blood is centrifuged at 200 g for 10 minutes and the supernatant (PRP) is collected. It is again centrifuged at 1500 g for 15 minutes. The blood-platelet sediment is washed with Buffer I (NaCl: 8 g/l, Tris: 1.21 g/l, KCl: 0.2 g/l, Gelatin: 2.5 g/l; the material is heated at 90° C. to dissolve the gelatin, after which are added glucose: 1 g/l, and N,N'-ethyleneglycol bis(β-aminoethyl ether,)tetraacetic acid or EGTA: 0.075 g/l). The suspension is centrifuged at 1500 g for 10 minutes, and the sediment is taken up into Buffer II (NaCl: 8 g/l, Tris: 1.21 g/l, KCl: 0.2 g/l, CaCl2 : 0.145 g/l, MgCl2 0.2 g/l, gelatin: 2.5 g/l; this material is heated to 90° C., after which glucose (1 g/l) is added, and the pH is adjusted to a value of 7.4 with 0.1 N HCl),
(§5) Metabolism of ^14 C-Arachidonate
(§6) The blood-platelet suspension (0.4 ml/tube) is pre-incubated at 37° C. for 15 minutes, either with 10 μl DMSO (reference), or with varying concentrations of products to be treated dissolved in 10 μl DMSO.
(§7) The incubation is effected in the presence of ^14 C-Arachidonate (1 μg, 0.2 μCi) distributed within 0.1 ml Buffer II. It is blocked after 15 minutes by means of 50 μl citric acid and 250 μl saturated NaCl.

Series [4] relates to 15 HETE. The experiment in a line: Metabolism of 14C-arachidonate in rabbit peritoneal PMNs: 15 HETE. The format is cell-based. The following applies: 15 HETE formation, n.i. = no inhibition. The method, then:
(§8) Preparation of a suspension of rabbit PMNs
(§9) The peritoneal leukocytes of rabbits are obtained and prepared according to the technique described by P. Borgeat and B. Samuelson (J. Biol. Chem. 254, n° 8, p. 2643, 1979).
as §5
(§10) The incubation and extraction methods are those described by J. Y. Vanderhoek & co-workers (J. Biol. Chem. […], 21, 10064, 1980).
(§11) The percent inhibition of the 5-lipoxygenase is determined as a function of the concentration of each compound. The concentration of product that inhibits the metabolism by a factor of 50% (IC50) is inferred from those curves.

Series [5] has as its system prostanoids. The series is described as follows: Inhibition of the metabolism of 14C-arachidonate in the blood platelets of rabbits: prostanoids route (TxB2, HHT). The following applies: rabbit blood platelets. The format is cell-based. The method, then: as §1, §2, §3, §4, §5, §6, §7
Series [6] in a line: Acute toxicity, intraperitoneal route. The note with it: mouse, in vivo, ip, in DMSO, 14 days observation, with confidence interval. The method, then:
The test animals used are Swiss mice (NMRI-Han). The average weight of the male animals is 30 g, that of the females is 25 g.
The acute toxicity investigation was conducted by the intraperitoneal route.
The compounds, dissolved in DMSO, are injected under the ventral side of the peritoneum, at increasing dosages.
The reference group is administered DMSO under the same conditions (2.5 ml.kg^-1).
Following Table III gives the values of the 50% lethal dosages together with the […].

Series [7] concerns the target T2, 5-lipoxygenase of the peritoneal leukocytes of rabbits (PMNs) (Oryctolagus cuniculus, UniProt G1SNX0).
T2 construct: metabolism of ^14 C-AA in the peritoneal PMNs of rabbits; endogenous in cells; host or cells: rabbit peritoneal polymorphonuclear leukocytes (suspension)
T2 sequence (G1SNX0 1-674): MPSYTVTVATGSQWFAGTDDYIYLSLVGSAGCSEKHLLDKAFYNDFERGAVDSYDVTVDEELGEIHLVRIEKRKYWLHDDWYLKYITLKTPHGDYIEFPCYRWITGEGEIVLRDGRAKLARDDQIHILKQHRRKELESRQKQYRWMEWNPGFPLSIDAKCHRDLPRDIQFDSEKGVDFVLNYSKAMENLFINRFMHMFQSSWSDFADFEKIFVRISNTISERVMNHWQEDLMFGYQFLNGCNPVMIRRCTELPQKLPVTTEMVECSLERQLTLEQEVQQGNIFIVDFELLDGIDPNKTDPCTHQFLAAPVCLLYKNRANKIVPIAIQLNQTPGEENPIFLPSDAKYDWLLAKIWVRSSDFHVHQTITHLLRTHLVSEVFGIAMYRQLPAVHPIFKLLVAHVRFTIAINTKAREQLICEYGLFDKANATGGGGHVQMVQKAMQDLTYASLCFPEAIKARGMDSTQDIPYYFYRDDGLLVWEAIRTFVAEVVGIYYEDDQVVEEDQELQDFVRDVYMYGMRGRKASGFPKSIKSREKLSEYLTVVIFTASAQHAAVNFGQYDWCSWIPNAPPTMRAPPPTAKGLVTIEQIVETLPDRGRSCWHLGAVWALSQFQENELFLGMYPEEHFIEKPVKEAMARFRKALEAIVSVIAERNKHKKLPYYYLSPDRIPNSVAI
The series is described as follows: Inhibition of the 5-lipoxygenase of the peritoneal leukocytes of rabbits (PMNs), metabolism of 14C-arachidonate. The format is cell-based. The note with it: rabbit peritoneal PMNs; for IC50: n.i. = no inhibition. How it is done:
1.1. Inhibition of the 5-lipoxygenase of the peritoneal leukocytes of rabbits (PMNs)
as §8, §9, §5, §10, §11

SMILES strings stand for the structures. Where two headings read alike, the source gives them in different places. A value given as a limit tells only on which side of the number the result lay.

Consider two compounds from patent US4656184A, “2-(N-substituted hydrazone), thiazoles useful as anti-inflammatories” (priority 1982, dated 1987).

On to `COc1ccc2c(c1)c(CC(=O)O)c(C)n2C(=O)c1ccc(Cl)cc1` [Indomethacin], for which the “leukocytic infiltration in the aqueous humor” value in series [1] is “increases leukocytic infiltration in the aqueous humor”. Also, in series [2] (at least seven rats), the “concentration at which inflammation is inhibited by a factor of 50%” value is listed as “no inhibition”.
As to `CC(=NNc1nccs1)c1cccs1` [Example 3b], the IC50 (commonly the concentration that inhibits the measured activity by half) was 10 µM in series [3]; 40 µM in series [4]; over 50 µM in series [5] (HHT, read-out: IC50 in the blood platelets, HHT); 10 µM in series [5] (thromboxane B2, read-out: IC50 in the blood platelets, T × B2); 10 µM in series [7] (5 HETE formation, read-out: IC50 in the PMNs, 5 HETE); 13 µM in series [7] (LTB4 formation, read-out: IC50 in the PMNs, LTB4). For the same compound, the entries for the “concentration at which inflammation is inhibited by a factor of 50%” value in series [2] (at least seven rats) and in series [2] (molar value in parentheses) were 16 mg/mL and 57 µmol/mL, respectively. The LD50 (as a rule, the dose expected to kill half of the subjects tested) at 336 h amounted to 155 ± 32 mg/kg in series [6] (female Swiss mice, read-out: Parenteral LD50, female mice) and 105 ± 24 mg/kg in series [6] (male Swiss mice, read-out: Parenteral LD50, male mice). For the same compound, in series [7] (50 μM), the “inhibition of the metabolism of the 5-lipoxygenase route (chromatographic profile, FIG. 2b)” value is recorded as “inhibition of the metabolism of the 5-lipoxygenase route”.
